The values that follow come from patent US11559518B2, “Endoplasmic reticulum stress regulator comprising benzothiazoimidazolyl compound” (ER Stress Research Institute, Inc., priority 2017, dated 2023).

In data set [1] the test system is endoplasmic reticulum stress response (EUA activity) in 293A transformed cells. The data set can be described thus: Endoplasmic reticulum stress reporter (10×ERSE2-10×UPRE-5×AARE-EGFP) fluorescence under Tunicamycin. The data set is classed as cell-based. The following applies: for inhibition at 5 µM: 293A, read-out: Endoplasmic reticulum stress inhibition rate (Z)%; for Suppression of EUA activity (endoplasmic reticulum stress response activation) caused by Tunicamycin: FIG. 5.

The test system of data set [2] is 293A transformed cell line. The settings on record: FIG. 8; for Cell proliferation on treatment with the stress inducer / cytotoxic compound alone: no test compound added.
Description: It is noted that in addition to Tm, camptothecin (CPT) was also used as a compound to confer cytotoxicity, and this was used as a positive control for cell death. Cell proliferation rate was determined by obtaining bright field images using a high content confocal imaging system (PerkinElmer, Operetta CLS) at intervals of 4 hours after starting the experiment, and calculating cell density from the bright field image using an image analysis software Harmony (PerkinElmer).
Data set [3] deals with 293A transformed cell line. Briefly: Intracellular ATP level (viability) of Tm-treated 293A transformed cell line. The following applies: Tm treatment; 43 hours; FIG. 9. The data set is classed as cell-based. As to the method: (§1) Intracellular ATP level or activity of lactate dehydrogenase (LDH), which is released from cells that have been damaged in the cell membrane, were measured in order to confirm the effect of Compound No. 1 against cell growth or cytotoxicity. […] Each were measured using an ATP assay kit (Promega, Celltiter-glo) and LDH activity measurement kit (Dojindo, Cytotoxicity LDH Assay Kit-WST) using a multiplate reader, Cytation 3 (Bio-Tek) according to the protocols of the kits (number of tests n=4).

Data set [4] deals with 293A transformed cell line. Briefly: Lactate dehydrogenase (LDH) release (cytotoxicity) of Tm-treated 293A transformed cell line. The class given is cell-based. The settings on record: 43 hours, FIG. 10. As to the method: as §1
Where [5] appears, read: Compound concentration: 5 μM, Tm-induced, EGFP fluorescence.

For `O=C([O-])CCCc1ccccc1.[Na+]` [4PBA, Sodium 4-phenylbutyrate, reference compound], in data set [1] (setting [5]), the inhibition at 5 µM stood at 0%. In addition, in data set [1] (concentration not given), the “Suppression of EUA activity (endoplasmic reticulum stress response activation) caused by Tunicamycin” value (shortened to “Suppression of EUA activity”) is listed as “could not suppress”.

`CCCC(=O)NCCc1csc(-c2ccc(Cl)cc2)n1` [Azoramide]: in data set [2] (40 μM, 0.2 μg/mL Tm), the “Cell proliferation recovered, % of that of UT cells” value is listed as “approximately 58%”. In data set [3], the “Intracellular ATP level recovered, % of that of UT cells” value is “approximately 75%”. In addition, the “Suppression of EUA activity” value in data set [1] (40 μM) is “had an inhibitory effect”. Moreover, the “Endoplasmic reticulum stress inhibition rate (Z)%” value in data set [1] (setting [5]) was 0%. In addition, the “LDH activity increased by Tm treatment, decreased to % of that of UT cells” value in data set [4] is on record as “approximately 50%”. For `C[C@H](CCC(=O)NCCS(=O)(=O)O)[C@H]1CC[C@H]2[C@@H]3[C@@H](O)C[C@@H]4C[C@H](O)CC[C@]4(C)[C@H]3CC[C@]12C` [TUDCA, Tauroursodeoxycholic Acid, reference compound], the inhibition at 5 µM in data set [1] (setting [5]) was 0%. Further, in data set [1] (concentration not given), the “Suppression of EUA activity” value is given as “could not suppress”. On to `CC[C@@]1(O)C(=O)OCc2c1cc1n(c2=O)Cc2cc3ccccc3nc2-1` [camptothecin], for which, in data set [2], the “Cell proliferation on treatment with the stress inducer / cytotoxic compound alone” value is listed as “almost completely inhibited”. On to `COC(=O)c1ccc2c(c1)sc1nc(-c3ccccc3)cn12` [compound 2], for which the inhibition at 5 µM in data set [1] (setting [5]) came to 100%. Same read-out and setting: under `Clc1ccc(-c2cn3c(n2)sc2ccccc23)cc1` [compound 3] stands 101%; under `CCc1ccc(-c2cn3c(n2)sc2cc(C(=O)OC)ccc23)cc1` [compound 4], 99%. The same measure, in the same setting: under `Fc1ccccc1-c1cn2c(n1)sc1ccccc12` [compound 5] stands 79%; under `CCN(CC)CCCNC(=O)c1ccc2c(c1)sc1nc(-c3ccc(OC)cc3)cn12` [compound 6], 93%; under `Cc1ccc(-c2cn3c(n2)sc2cc(C(=O)NCCCN4CCCCC4C)ccc23)cc1` (centres unmarked) [compound 7], 95%. Still for that read-out and setting: under `COc1cccc(-c2cn3c(n2)sc2cc(C(=O)NCCCN4CCOCC4)ccc23)c1` [compound 8] stands 98%; under `CCN(CC)CCCNC(=O)c1ccc2c(c1)sc1nc(-c3ccccc3)cn12` [compound 9], 61%; under `O=C(NCCCN1CCCCC1)c1ccc2c(c1)sc1nc(-c3ccccc3)cn12` [compound 10], 41%.

For the compound `Cc1ccc(-c2cn3c(n2)sc2cc(C(=O)NCCCN4CCOCC4)ccc23)cc1` [compound 11], the inhibition at 5 µM in data set [1] (setting [5]) came to 66%.

On to `CS(=O)(=O)c1ccc2c(c1)sc1nc(-c3ccccc3Cl)cn12` [compound 12], for which the inhibition at 5 µM in data set [1] (setting [5]) was 54%. The same measure, in the same setting: under `CCOC(=O)C1CCN(C(=O)c2ccc3c(c2)sc2nc(-c4ccc(OC)cc4)cn23)CC1` [compound 13] stands 60%. Take Tunicamycin [Tm]: in data set [2], the “Cell proliferation on treatment with the stress inducer / cytotoxic compound alone” value is “almost completely inhibited”.
